Assay results: US8415156B2, “Recombinant laminin-521” (Biolamina AB, priority 2010, dated 2013)

Assays:
[1] = test system: Oct4 and Nanog; assay: Real-time quantitative RT-PCR of pluripotency markers (Example 1); format: cell-based, human; details: after several single cell dissociation passages
Method: Total RNA was isolated and cDNA was synthesized as described in Rodin et al., Nature Biotechnol., vol. 28, pp. 611-615 (2010). Real-time quantitative RT-PCR Taqman assays were performed using the Applied Biosystems 7300 Real-Time PCR System. All reactions were done in quadruplicate with predeveloped gene expression assay mix (Applied Biosystems) containing primers and a probe for the mRNA of interest. Additional reactions for each experiment included predeveloped gene expression assay mix for GAPDH, used to normalize the RNA input. All data were analyzed with 7300 System SDS Software version 1.4.

[2] = test system: human iPS ChiPSW and CutB1.2 cells; assay: Long-term self-renewal of human iPS cells on LN-521; format: cell-based; details: mTeSR1
[3] = test system: OCT4; assay: FACS analysis for Oct4; format: cell-based, human; details: after several single cell suspension passages, O3 medium without additives
Method: OCT4 expression was analyzed as described in Ludwig, T. E. et al. Derivation of human embryonic stem cells in defined conditions. Nat. Biotechnol. 24, 185-187 (2006). Cells were run on FACSCalibur Flow Cytometer (Becton Dickinson). Data were analyzed with CellQuest software (Becton Dickinson).

[4] = test system: human ES cells; assay: Long-term culture with single cell dissociation passaging (Example 1); format: cell-based; details: for proliferation rate compared with Matrigel / classical methods: single cell suspension passaging vs passaging in clumps
Method: Human ES cells were cultured on r-laminin-521-coated laboratory dishes in chemically defined O3 medium (described in Rodin et al., Nature Biotechnol., vol. 28, pp. 611-615 (2010)) at 37° C. in 5% CO2. Cells were routinely passed once every 10-12 days by exposure to Trypsin-EDTA solution (GIBCO Invitrogen) for 5 minutes at 37° C. They were then gently pipetted to break into single-cell suspension and defined trypsin inhibitor (GIBCO Invitrogen) was added. The cell suspension was centrifuged […], the supernatant discarded, the cell pellet resuspended in prewarmed O3 medium, and cells were then passed through a 40 μm sieve. After that cells were plated on new r-laminin-521-coated dishes at a concentration 30 Kcells/cm^2 (1:25-1:30 split ratio). Cells were fed once a day with fresh medium prewarmed in an incubator for 1 hour, except for the first day after a passage, when only a few drops of fresh medium were added. Control cells of the same line were cultured on Matrigel (BD Biosciences) in O3 medium as described in Rodin et al., Nature Biotechnol., vol. 28, pp. 611-615 (2010). Control cells were passaged in pieces.

[5] = test system: hES cell lines HS181 and H1; assay: Karyotyping; format: cell-based, human; details: HS181 12 passages and H1 10 passages in O3; H1 7 passages in TeSR2
Method: Karyotyping of the cell lines was carried out using standard Q-banding techniques. Samples of cells were treated with colcemid KaryoMAX (0.1 μg/ml; Gibco Invitrogen Corporation) for up to 4 hours, followed by dissociation with Trypsin/EDTA solution (Gibco Invitrogen Corporation). The cells were pelleted via centrifugation and re-suspended in pre-warmed 0.0375 M KCl hypotonic solution and incubated for 10 minutes. Following centrifugation, the cells were resuspended in fixative (3:1 methanol:acetic acid). Metaphase spreads were prepared on glass microscope slides and G-banded by brief exposure to trypsin and stained with 4:1 Gurr's/Leishmann's stain (Sigma-Aldrich Co.). A minimum of 10 metaphase spreads were analyzed and additional 20 were counted.

[6] = test system: hES cells; assay: In vivo imaging and migration assay; format: cell-based, human
Method: 24-well plates were coated by extracellular matrix proteins and blocked by O3 medium containing bovine serum albumin. The ES cells were plated at cell density of 30,000-40,000 cells/cm^2 onto extracellular matrix-coated plates and left to adhere for half an hour in a cell incubator. After that, the plate was transferred into high content imaging system Operetta (PerkinElmer) equipped with environmental control unit, which allowed to keep 37° C., 5% CO2. For two movies that were made, the brightfield images were taken once in 15 minutes during 24 hours after plating using Harmony software (PerkinElmer), exported, and analyzed using ImageJ software (NIH, the US). For migration assay the images were taken every seven minutes during 18 hours after plating. Images acquired between the fifth and seventh hours after plating were analyzed using MTrackJ plug-in (University Medical Center, Rotterdam, The Netherlands). 100 attached cells on each coating were traced and mean distances from the current to the previous point of the track were calculated. Error bars show standard error of the mean s.e.m. (n=100).

[7] = target: Integrin α6β1 (Homo sapiens, UniProt P05556+P23229); details: cited from earlier work
Integrin α6β1, sequence (P23229 24-1130): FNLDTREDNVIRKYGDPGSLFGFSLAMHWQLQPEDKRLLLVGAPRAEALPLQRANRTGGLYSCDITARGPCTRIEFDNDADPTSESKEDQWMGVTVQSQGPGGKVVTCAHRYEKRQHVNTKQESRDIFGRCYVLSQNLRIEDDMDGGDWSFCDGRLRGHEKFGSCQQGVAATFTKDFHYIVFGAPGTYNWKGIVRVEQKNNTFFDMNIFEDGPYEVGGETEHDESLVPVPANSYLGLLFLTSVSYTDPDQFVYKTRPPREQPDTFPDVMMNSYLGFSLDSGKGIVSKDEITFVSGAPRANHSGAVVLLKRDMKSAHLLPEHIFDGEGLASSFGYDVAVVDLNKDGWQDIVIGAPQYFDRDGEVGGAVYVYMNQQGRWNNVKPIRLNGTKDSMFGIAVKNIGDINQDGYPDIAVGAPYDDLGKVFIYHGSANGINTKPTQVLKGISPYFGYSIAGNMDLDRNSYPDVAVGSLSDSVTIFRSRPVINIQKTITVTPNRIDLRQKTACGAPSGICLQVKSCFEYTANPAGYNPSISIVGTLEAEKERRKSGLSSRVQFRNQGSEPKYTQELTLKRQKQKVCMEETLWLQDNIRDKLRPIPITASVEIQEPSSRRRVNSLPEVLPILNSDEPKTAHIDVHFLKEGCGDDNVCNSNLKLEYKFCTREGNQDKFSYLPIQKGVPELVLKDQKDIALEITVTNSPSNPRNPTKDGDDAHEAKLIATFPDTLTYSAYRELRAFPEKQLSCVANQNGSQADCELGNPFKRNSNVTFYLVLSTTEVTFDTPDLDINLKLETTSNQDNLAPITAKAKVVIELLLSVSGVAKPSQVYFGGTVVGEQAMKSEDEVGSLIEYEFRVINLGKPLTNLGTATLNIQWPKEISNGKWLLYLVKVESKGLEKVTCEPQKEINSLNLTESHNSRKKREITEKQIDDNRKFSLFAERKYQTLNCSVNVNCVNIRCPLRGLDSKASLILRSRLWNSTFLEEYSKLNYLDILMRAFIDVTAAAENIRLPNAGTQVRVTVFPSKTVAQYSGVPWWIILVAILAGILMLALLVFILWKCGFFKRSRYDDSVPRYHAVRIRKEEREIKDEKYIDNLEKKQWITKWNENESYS
Integrin α6β1, sequence (P05556 21-798): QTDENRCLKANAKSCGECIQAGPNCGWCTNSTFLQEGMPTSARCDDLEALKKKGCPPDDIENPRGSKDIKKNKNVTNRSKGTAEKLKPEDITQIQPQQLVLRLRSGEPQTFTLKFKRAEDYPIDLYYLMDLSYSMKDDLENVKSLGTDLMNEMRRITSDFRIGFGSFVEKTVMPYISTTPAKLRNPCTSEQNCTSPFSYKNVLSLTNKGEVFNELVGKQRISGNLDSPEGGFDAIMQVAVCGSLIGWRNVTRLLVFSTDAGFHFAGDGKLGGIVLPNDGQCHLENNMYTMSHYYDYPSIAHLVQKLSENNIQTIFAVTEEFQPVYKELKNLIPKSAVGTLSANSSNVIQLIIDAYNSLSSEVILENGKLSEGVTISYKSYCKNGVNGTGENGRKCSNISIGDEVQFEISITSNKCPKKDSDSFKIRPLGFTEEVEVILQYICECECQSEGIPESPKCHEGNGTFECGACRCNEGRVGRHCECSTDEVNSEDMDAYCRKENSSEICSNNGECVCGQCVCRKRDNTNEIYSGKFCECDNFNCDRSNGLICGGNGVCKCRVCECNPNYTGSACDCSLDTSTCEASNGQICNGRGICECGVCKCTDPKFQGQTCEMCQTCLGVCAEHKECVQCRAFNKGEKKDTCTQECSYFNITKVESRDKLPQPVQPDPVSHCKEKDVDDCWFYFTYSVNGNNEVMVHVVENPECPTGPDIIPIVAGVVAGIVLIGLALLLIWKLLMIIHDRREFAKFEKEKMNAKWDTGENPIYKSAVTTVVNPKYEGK

LN-521: protein formed by joining α5, β2 and γ1 chains together; human recombinant, produced in HEK293 cells
number of mRNA transcripts of Oct4 and Nanog compared with Matrigel [1]: higher numbers of transcripts
passages cultured, ChiPSW cells [2]: 3 passages
passages cultured, CutB1.2 iPS cells [2]: 5 passages
percentage of Oct4 positive (pluripotent) cells compared with Matrigel [3]: much higher percentage
passages in single cell suspension giving the same number of cell divisions as cultures on Matrigel after 20 passages ([4]; 3 passages = 1 month, Matrigel passaged in pieces, 20 passages (3 months / 100 days)): 3 passages
passages with robust proliferation at a stable and high rate ([4]; single cell passaging every 10-12 days, 1:25 to 1:30 ratios, 3 months): at least 9 passages
proliferation rate compared with Matrigel / classical methods [4]: much faster rate
proliferation rate compared with Matrigel / classical methods ([4]; listed as laminin-521): higher rate
karyotype [5]: normal
migration of cells (in vivo imaging) compared with Matrigel [6]: much faster
motility of hES cells between the fifth and seventh hours after plating ([6]; compared with Matrigel, LN-111, LN-511): higher than that of the cells on other coatings
binding affinity of integrin α6β1 [7]: higher than that for LN-111
